In PMC3728351, “Allosteric Inhibitors of the NS3 Protease from the Hepatitis C Virus” (PLoS ONE, 2013):
Where two headings read alike, the source gives them in different places.

How the values were obtained:
in vitro = assay type: cell-based; details: human
Experimental: Serial dilutions of the test compounds in complete DMEM (without G418) were added 24 hours after seeding. Cells were allowed to proliferate for 3 days at 37°C, after which the cell number was determined by CellTiter 96 AQueous One Solution Cell Proliferation Assay (Promega Corporation).

NS3 protease S139A/R155K = target: T1, NS3 protease S139A/R155K (Hepatitis C virus genotype 1b, UniProt P26663, R1181K/S1165A); assay: ITC binding to Zn^+2-free NS3 protease, S139A/R155K; details: 25°C, 100 mM sodium acetate, 2 mM EDTA, pH 5; relative error 15%
T1 construct: The N-terminal domain from full-length NS3 protein corresponding to NS3 protease was expressed and purified; made in house
Experimental: (§1) The N-terminal domain from full-length NS3 protein corresponding to NS3 protease was expressed and purified as described elsewhere, [18].
(§2) Ligand binding to NS3 protease was determined with a high-sensitivity isothermal titration VP-ITC microcalorimeter (MicroCal, USA). Protein samples and reference solutions were properly degassed and carefully loaded into the cells to avoid bubble formation during stirring. Experiments were performed with freshly prepared buffer-exchanged protein solutions, at 25°C in 100 mM sodium acetate, 2 mM EDTA, pH 5. NS3 protease 20 µM solution in the calorimetric cell was titrated with compound 300 µM solution. Control experiments were performed under the same experimental conditions, except for the presence of zinc (no addition of EDTA). The heat evolved after each ligand injection was obtained from the integral of the calorimetric signal. The heat due to the binding reaction was obtained as the difference between the reaction heat and the corresponding heat of dilution, the latter estimated as a constant heat throughout the experiment, and included as an adjustable parameter in the analysis. The association constant (Ka) and the enthalpy change (ΔH) were obtained through non-linear regression of experimental data to a model for a protein with a single ligand binding site. Data were analyzed using software developed in our laboratory implemented in Origin 7 (OriginLab, USA).
(§3) NS3 protease wild-type, pseudo-wild-type (containing the inactivating mutation S139A) and several variants containing drug-resistance associated mutations (R155K, R155Q, A156T, and D168A) were employed for determining the impact of these mutations on the interaction of the selected compounds with the protein (change in dissociation constant).

[1] = tested on: genotype 1b Con1 HCV subgenomic replicons (Huh 5-2); assay: microbe, parasite or virus in culture; details: for EC50: Hepatitis C virus, GETYPE1B, Huh-5-2, 72 h, read-out: EC50, effective concentration 50%
Experimental: The highly permissive cell clone Huh 7-Lunet, as well as Huh 7 cells containing subgenomic HCV replicons I389luc-ubi-neo/NS3-3′/5.1 (Huh 5-2), I377NS3-3′/wt (Huh 9-13) or I389/hygro-ubi-NS3-3/5.1 (a kind gift from Dr. V. Lohmann and Dr. R. Bartenschlager) have been described recently [25]-[28]. Cells were grown in Dulbecco’s modified Eagle’s medium (DMEM; Gibco, Belgium) supplemented with 10% heat-inactivated fetal bovine serum (PAN-Biotech GmbH, Germany), 1X non-essential amino acids (Gibco), 100 IU/mL penicillin (Gibco), 100 µg/mL streptomycin (Gibco), and 250 µg/mL geneticin (G418; Gibco).
Antiviral assays for assessing the efficacy of the selected compounds were performed as described in literature [23]–[28]. Briefly, Huh 5-2 cells were seeded at a density of 5⋅10^3 cells per well in a tissue culture-treated white 96-well view plate (Techno Plastic Products AG, Switzerland) in complete DMEM supplemented with 250 µg/mL G418. […] After 3 days of incubation at 37°C cell culture medium was removed and luciferase activity was determined using the Bright-Glo™ Luciferase Assay System (Promega Corporation, The Netherlands). The luciferase signal was measured using a Synergy HT Multimode Reader (BioTek Instruments Inc, USA).

[2] = target: T2, NS3 protease wild-type (Zn^+2-free) (Hepatitis C virus genotype 1b, UniProt P26663); assay: biochemical; assay type: binding
T2 construct: The N-terminal domain from full-length NS3 protein corresponding to NS3 protease was expressed and purified; made in house
Experimental: as §1, §2, §3

[3] = target: T3, NS3 protease S139A (pseudo-wild-type) (Hepatitis C virus genotype 1b, UniProt P26663, S1165A); assay: ITC binding to Zn^+2-free NS3 protease, pseudo-wild-type S139A; details: 25°C, 100 mM sodium acetate, 2 mM EDTA, pH 5; relative error 15%
T3 construct: The N-terminal domain from full-length NS3 protein corresponding to NS3 protease was expressed and purified; made in house
Experimental: as §1, §2, §3

NS3 protease S139A/D168A = target: T4, NS3 protease S139A/D168A (Hepatitis C virus genotype 1b, UniProt P26663, D1194A/S1165A); assay: ITC binding to Zn^+2-free NS3 protease, S139A/D168A; details: 25°C, 100 mM sodium acetate, 2 mM EDTA, pH 5; relative error 15%
T4 construct: The N-terminal domain from full-length NS3 protein corresponding to NS3 protease was expressed and purified; made in house
Experimental: as §1, §2, §3

NS3 protease S139A/R155Q = target: T5, NS3 protease S139A/R155Q (Hepatitis C virus genotype 1b, UniProt P26663, R1181Q/S1165A); assay: ITC binding to Zn^+2-free NS3 protease, S139A/R155Q; details: 25°C, 100 mM sodium acetate, 2 mM EDTA, pH 5; relative error 15%
T5 construct: The N-terminal domain from full-length NS3 protein corresponding to NS3 protease was expressed and purified; made in house
Experimental: as §1, §2, §3

NS3 protease S139A/A156T = target: T6, NS3 protease S139A/A156T (Hepatitis C virus genotype 1b, UniProt P26663, A1182T/S1165A); assay: ITC binding to Zn^+2-free NS3 protease, S139A/A156T; details: 25°C, 100 mM sodium acetate, 2 mM EDTA, pH 5; relative error 15%
T6 construct: The N-terminal domain from full-length NS3 protein corresponding to NS3 protease was expressed and purified; made in house
Experimental: as §1, §2, §3

NS3 protease [4] = details: assuming pseudo-first order association, from kobs of ref 23
NS3 protease [5] = details: read-out: dissociation constant for the NS3-zinc interaction; ITC, pH 5; cited from earlier work
NS3 protease [6] = details: pH 7.5; cited from earlier work
NS3 protease [7] = details: read-out: apparent dissociation constant for the NS3-zinc interaction; cited from earlier work
[8] = Huh 5-2 cells, 3 days proliferation, relative error 15%
[9] = ratio of CC50 to EC50 in Huh 5-2 cells

T2 sequence (P26663 1027-1208): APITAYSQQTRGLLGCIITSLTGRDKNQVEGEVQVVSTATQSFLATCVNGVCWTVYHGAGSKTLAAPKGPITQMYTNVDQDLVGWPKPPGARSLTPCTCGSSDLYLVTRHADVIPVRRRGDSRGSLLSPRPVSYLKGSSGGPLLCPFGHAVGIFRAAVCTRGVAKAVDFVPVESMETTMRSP
T3 sequence (P26663 1027-1208 S1165A): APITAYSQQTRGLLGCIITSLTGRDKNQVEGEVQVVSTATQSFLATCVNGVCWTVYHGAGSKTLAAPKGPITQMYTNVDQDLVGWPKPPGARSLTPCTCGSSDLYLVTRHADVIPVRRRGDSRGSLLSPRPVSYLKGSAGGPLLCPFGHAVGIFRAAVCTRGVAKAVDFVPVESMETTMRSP
T5 sequence (P26663 1027-1208 S1165A/R1181Q): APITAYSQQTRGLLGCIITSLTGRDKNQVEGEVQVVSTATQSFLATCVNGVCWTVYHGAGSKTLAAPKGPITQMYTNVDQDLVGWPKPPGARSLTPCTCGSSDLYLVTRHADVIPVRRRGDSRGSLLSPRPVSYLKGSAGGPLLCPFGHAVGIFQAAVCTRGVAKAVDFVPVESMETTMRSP
T6 sequence (P26663 1027-1208 S1165A/A1182T): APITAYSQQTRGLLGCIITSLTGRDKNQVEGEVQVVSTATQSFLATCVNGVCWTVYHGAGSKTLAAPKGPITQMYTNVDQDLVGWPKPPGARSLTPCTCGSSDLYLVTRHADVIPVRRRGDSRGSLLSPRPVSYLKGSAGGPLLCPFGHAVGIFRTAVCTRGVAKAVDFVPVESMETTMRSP
T4 sequence (P26663 1027-1208 S1165A/D1194A): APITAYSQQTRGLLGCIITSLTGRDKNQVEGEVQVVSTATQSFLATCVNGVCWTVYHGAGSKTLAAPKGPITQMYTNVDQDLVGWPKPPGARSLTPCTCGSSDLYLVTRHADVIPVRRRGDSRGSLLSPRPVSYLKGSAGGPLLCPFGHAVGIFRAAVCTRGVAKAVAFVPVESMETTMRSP
T1 sequence (P26663 1027-1208 S1165A/R1181K): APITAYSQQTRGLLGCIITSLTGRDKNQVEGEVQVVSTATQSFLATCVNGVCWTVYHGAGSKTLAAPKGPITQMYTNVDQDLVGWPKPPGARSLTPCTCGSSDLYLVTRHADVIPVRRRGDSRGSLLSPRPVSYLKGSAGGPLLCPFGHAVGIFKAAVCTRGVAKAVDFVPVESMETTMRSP

Molecule: COC(=O)Nc1nc2ccc(C(=O)c3cccs3)cc2[nH]1 [Compound 1]
- CC50 (in vitro; [8]): > 120 µM
- Kd (NS3 protease S139A/R155K): 5.3 µM
- EC50 [1]: 0.03 µM
- CC50/EC50 [1, 9]: >4000
- Kd [2]: 1.9 µM
- Kd [3]: 6.5 µM
- Kd (NS3 protease S139A/D168A): 2.6 µM

Molecule: CC[C@@]1(O)C(=O)OCc2c1cc1n(c2=O)Cc2cc3ccccc3nc2-1 [Compound 3]
- CC50 at 3 days (in vitro; [8]): 8 µM
- EC50 [1]: 0.03 µM
- Kd [2]: 2.5 µM

Molecule: Nc1c2c(nc3ccccc13)CCCC2 [Compound 5]
- CC50 (in vitro): > 120 µM
- Kd (NS3 protease S139A/R155Q): 32 µM
- Kd (NS3 protease S139A/R155K): 5.9 µM
- CC50/EC50 [1]: >2
- EC50 [1]: 60 µM
- Kd (NS3 protease S139A/A156T): 27 µM
- Kd [2]: 1.7 µM
- Kd [3]: 5.5 µM
- Kd (NS3 protease S139A/D168A): 8.5 µM

Molecule: COC(=O)[C@H]1[C@H]2C[C@@H]3c4[nH]c5cc(OC)ccc5c4CCN3C[C@H]2C[C@@H](OC(=O)/C=C/c2cc(OC)c(OC)c(OC)c2)[C@@H]1OC [Compound 6]
- CC50 (in vitro; [8]): > 120 µM
- Kd (NS3 protease S139A/R155Q): 23 µM
- Kd (NS3 protease S139A/R155K): 61 µM
- EC50 [1]: 20 µM
- CC50/EC50 [1, 9]: >6
- Kd (NS3 protease S139A/A156T): 45 µM
- Kd [2]: 40 µM
- Kd [3]: 24 µM
- Kd (NS3 protease S139A/D168A): 36 µM

Molecule: CC(=O)C1CCC2C3C=CC4=CC(=O)CCC4(C)C3CCC12C (centres unmarked) [Compound 7]
- CC50 (in vitro; [8]): > 120 µM
- Kd (NS3 protease S139A/R155Q): 4.2 µM
- Kd (NS3 protease S139A/R155K): 16 µM
- EC50 [1]: 2 µM
- CC50/EC50 [1, 9]: >60
- Kd (NS3 protease S139A/A156T): 5.8 µM
- Kd [2]: 16 µM
- Kd [3]: 5.7 µM
- Kd (NS3 protease S139A/D168A): 6.5 µM

Molecule: CCOc1ccc(Cc2nccc3cc(OCC)c(OCC)cc23)cc1OCC [Compound 8]
- CC50 (in vitro; [8]): 60 µM
- Kd (NS3 protease S139A/R155Q): 42 µM
- Kd (NS3 protease S139A/R155K): 9.2 µM
- EC50 [1]: 4 µM
- CC50/EC50 [1, 9]: 15
- Kd (NS3 protease S139A/A156T): 22 µM
- Kd [2]: 31 µM
- Kd [3]: 34 µM
- Kd (NS3 protease S139A/D168A): 16 µM

Molecule: zinc
- kon (NS3 protease [4]): < 0.0014 µM⁻¹ s⁻¹
- Kd (NS3 protease [5]): 500 nM
- apparent association rate constant, kobs (NS3 protease [6]): around 0.014 s^−1
- Kd (NS3 protease [7]): ~1000 nM
